*1 amine or outer side, *2 acyl side, *3 side chain or, on linkers, in order; H or OH if unused. Where a SMILES comes first, the peptide text is derived from it. Bridges are numbered along the chain shown (N, C = ends). Side-chain parts run from the residue outwards. [ ]: non-standard residue; d: D form. The star is where a group is joined. ξ: configuration not given here. X30 = C[N+](C)(CCCC(=O)CCOCCOCCOCCOCCOCCOCCNC(=O)CC[C@H](NC(=O)CCCCCCCCCCCCCCCCC(=O)O)C(=O)O)CC(=O)*; FITC = O=C1OC2(c3ccc(O)cc3Oc3cc(O)ccc32)c2ccc(NC(=S)*)cc21; Me3N+CH2CH2(OCH2CH2)4CO = C[N+](C)(C)CCOCCOCCOCCOCCC(=O)*; Me3N+(CH2)2O(CH2)2O(CH2)2CO = C[N+](C)(C)CCOCCOCCC(=O)*; X28 = CC(=O)[C@H](CCC(=O)*)NC(=O)CCCCCCCCCCCCCCCCC(=O)O; CH2CH2OCH2CH2OCH2CH2NMe3+ = C[N+](C)(C)CCOCCOCC*; Trp(7-Me) = Cc1cccc2c(C[C@H](N)C(=O)O)c[nH]c12; C18 diacid = O=C(O)CCCCCCCCCCCCCCCCC(=O)*; X6 = CN(CC[C@H](N[*:1])C(=O)[*:2])[*:3]; γGlu = O=C(O)[C@H](CCC(=O)[*:2])N[*:1]; 2Nal = N[C@@H](Cc1ccc2ccccc2c1)C(=O)O; AEF = NCCOc1ccc(C[C@H](N)C(=O)O)cc1; PEG6 = NCCOCCOCCOCCOCCOCCOCCC(=O)O; ξAEF = NCCOc1ccc(CC(N)C(=O)O)cc1; 3Pal = N[C@@H](Cc1cccnc1)C(=O)O; Lys(Me) = CNCCCC[C@H](N)C(=O)O; NMeK = CN[C@@H](CCCCN)C(=O)O; PEG4 = NCCOCCOCCOCCOCCC(=O)O; Pen = CC(C)(S)[C@H](N)C(=O)O; ξ3Pal = NC(Cc1cccnc1)C(=O)O; Ac6c = NC1(C(=O)O)CCCCC1; Thp = NC1(C(=O)O)CCOCC1; Abu = CC[C@H](N)C(=O)O; X31 = C=C(CN(C)*)N(C)C; AEEA = NCCOCCOCC(=O)O; Sar = CNCC(=O)O
Key:
[1] = tested on: IL-23-stimulated phosphorylated STAT3 in peripheral blood mononuclear cells (PBMCs); test: PBMC pSTAT3 Assay; format: cell-based; conditions: PBMCs from healthy donors; 30 min preincubation with peptide; IL-23 5 ng/mL for 30 min; phospho-STAT3 by MSD
In short: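 Phospho-STAT3 quantified by Meso Scale assay in lysates of PBMCs exposed to IL-23 (5 ng/mL, 30 min, 37 °C) after 30 min peptide pretreatment. Cells were cryopreserved donor PBMCs activated 4 days with anti-CD3 plus IL-1β (100 ng/mL) and starved ~4 h; IC50 reported.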

IL-23R = biological target: T1, IL-23R (Homo sapiens, UniProt Q5VWK5); test: IL23R Reporter Assay; format: cell-based; conditions: HEK293 cells containing IL-23R, IL-12Rβ1 and STAT-inducible firefly luciferase reporter; 10 ng/mL IL-23 (EC90); 5 h
T1 construct: HEK293 cells containing IL-23R, IL-12Rβ1 and a firefly luciferase reporter gene driven by a STAT-inducible promoter (Promega); host or cells: HEK293
T1 sequence (Q5VWK5 24-629): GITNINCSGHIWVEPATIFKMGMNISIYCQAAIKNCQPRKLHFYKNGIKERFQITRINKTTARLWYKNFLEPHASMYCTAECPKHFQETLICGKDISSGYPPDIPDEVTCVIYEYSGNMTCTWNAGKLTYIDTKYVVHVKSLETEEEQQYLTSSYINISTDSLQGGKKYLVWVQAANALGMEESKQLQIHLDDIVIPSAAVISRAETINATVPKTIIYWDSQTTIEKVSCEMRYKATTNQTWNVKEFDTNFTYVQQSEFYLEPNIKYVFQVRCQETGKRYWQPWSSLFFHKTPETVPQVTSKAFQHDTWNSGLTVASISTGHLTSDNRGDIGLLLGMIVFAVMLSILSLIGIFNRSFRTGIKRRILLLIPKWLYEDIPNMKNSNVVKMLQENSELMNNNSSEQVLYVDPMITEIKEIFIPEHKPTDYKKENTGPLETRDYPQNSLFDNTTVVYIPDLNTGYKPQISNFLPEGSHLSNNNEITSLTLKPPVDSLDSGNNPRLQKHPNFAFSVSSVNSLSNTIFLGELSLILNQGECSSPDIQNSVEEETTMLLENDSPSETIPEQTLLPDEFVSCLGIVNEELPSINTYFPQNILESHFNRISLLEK
In short: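 IC50 values were fitted with a 4-parameter Hill equation to luciferase signal, scaled between IL-23-only wells (0% inhibition) and 30 μM reference inhibitor (100%). The readout was a STAT-inducible reporter in IL-23R/IL-12Rβ1 HEK293 cells, stimulated with added 10 ng/mL IL-23 (EC90) for 5 h at 37° C and developed with BioGlo.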

IC50 (IL-23R)	Compound	IC50 [1]
< 50 nM	CC(=O)[C@H](CCC(=O)NCCOCCOCCOCCOCCOCCOCCC(=O)NCCCC[C@@H](C(N)=O)N(C)C(=O)[C@H](Cc1cccnc1)NC(=O)[C@H](CC(N)=O)NC(=O)[C@H](CCC(=O)O)NC(=O)C1(NC(=O)[C@H](Cc2ccc3ccccc3c2)NC(=O)C(Cc2ccc(OCCN)cc2)NC(=O)[C@H]2NC(=O)[C@H](CCN(C)C(=O)CCOCCOCCOCCOCC[N+](C)(C)C)NC(=O)[C@H](Cc3c[nH]c4c(C)cccc34)NC(=O)[C@H]([C@@H](C)O)NC(=O)[C@H](CC(=O)N(C)C)NC(=O)[C@@H](NC(=O)CCOCCOCCOCCOCC[N+](C)(C)C)C(C)(C)SSC2(C)C)CCOCC1)NC(=O)CCCCCCCCCCCCCCCCC(=O)O (stereo partly drawn) [compound 91, HOC18gEPEG2PEG2COSP6-Pen(3)-N(N(Me)2)-T-7MeW-K(NMeAc)-Pen(3)-APEG3F-2Nal-THP-K(NMeAc)-N-3Pya-Sar-CON(Me)2] ({Me3N+CH2CH2(OCH2CH2)4CO}-[Pen]D(NMe2)T[Trp(7-Me)][X6](Me3N+CH2CH2(OCH2CH2)4CO)[Pen][ξAEF][2Nal][Thp]EN[3Pal][NMeK]([PEG6-X28])-NH2; disulfide 1-6)	< 0.5 nM
50 to 500 nM	CC(=O)N(C)CCCC[C@@H]1NC(=O)[C@H](Cc2c[nH]c3c(C)cccc23)NC(=O)[C@H]([C@@H](C)O)NC(=O)[C@H](CC(=O)N(C)C)NC(=O)[C@@H](NC(=O)CCOCCOCC[N+](C)(C)C)C(C)(C)SSC(C)(C)[C@@H](C(=O)N[C@@H](Cc2ccc(OCCOCCOCC[N+](C)(C)C)cc2)C(=O)N[C@@H](Cc2ccc3ccccc3c2)C(=O)NC2(C(=O)N[C@@H](CCCCNC(=O)COCCOCCNC(=O)COCCOCCNC(=O)CC[C@H](NC(=O)CCCCCCCCCCCCCCCCC(=O)O)C(=O)O)C(=O)N[C@@H](CC(N)=O)C(=O)N[C@@H](Cc3cccnc3)C(=O)N(C)CC(=O)N(C)C)CCOCC2)NC1=O [compound 156, cPEG3aCO-Pen(3)-N(N(Me)2)-T-7MeW-K(NMeAc)-Pen(3)-APEG3F-2Nal-THP-K(PEG2PEG2gEC18OH)-N-3Pya-Sar-CON(Me)2] ({Me3N+(CH2)2O(CH2)2O(CH2)2CO}-[Pen]D(NMe2)T[Trp(7-Me)][Lys(Me)](Ac)[Pen]Y(CH2CH2OCH2CH2OCH2CH2NMe3+)[2Nal][Thp]K([AEEA-AEEA-γGlu-C18 diacid])N[3Pal][Sar]-NMe2; disulfide 1-6)	< 0.5 nM
< 50 nM	C=C(CN(C)C(=O)C(Cc1cccnc1)NC(=O)[C@H](CC(N)=O)NC(=O)[C@H](CCCCN(C)C(C)=O)NC(=O)C1(NC(=O)[C@H](Cc2ccc3ccccc3c2)NC(=O)[C@H](Cc2ccc(OCCNC(=O)C[N+](C)(C)CCCC(=O)CCOCCOCCOCCOCCOCCOCCNC(=O)CC[C@H](NC(=O)CCCCCCCCCCCCCCCCC(=O)O)C(=O)O)cc2)NC(=O)[C@H]2NC(=O)[C@H](CCCCN(C)C(C)=O)NC(=O)[C@H](Cc3c[nH]c4ccccc34)NC(=O)[C@H]([C@@H](C)O)NC(=O)[C@H](CC)NC(=O)[C@@H](N)C(C)(C)SSC2(C)C)CCCCC1)N(C)C (stereo partly drawn) [compound 142, cPEG3aCO-Pen(3)-N(N(Me)2)-T-7MeW-K(NMeAc)-Pen(3)-AEF(SP6PEG6gEC18OH)-2Nal-THP-K(NMeAc)-N-3Pya-Sar-CON(Me)2] (H-[Pen][Abu]TW[Lys(Me)](Ac)[Pen][AEF](X30)[2Nal][Ac6c][Lys(Me)](Ac)N[ξ3Pal]-X31; disulfide 1-6)	< 0.5 nM
50 to 500 nM	CC(=O)NCCCC[C@@H]1NC(=O)[C@H](Cc2c[nH]c3c(C)cccc23)NC(=O)[C@H]([C@@H](C)O)NC(=O)[C@H](CC(N)=O)NC(=O)[C@@H](NC(=O)[C@@H](CCCNC(=N)N)NC(=O)CCOCCOCCOCCOCCNC(=S)Nc2ccc3c(c2)C(=O)OC32c3ccc(O)cc3Oc3cc(O)ccc32)C(C)(C)SSC(C)(C)[C@@H](C(=O)N[C@@H](Cc2ccc(OCCN)cc2)C(=O)N[C@@H](Cc2ccc3ccccc3c2)C(=O)NC2(C(=O)N[C@@H](CCC(=O)O)C(=O)N[C@@H](CC(N)=O)C(=O)N[C@@H](Cc3cccnc3)C(=O)N(C)CC(=O)N[C@@H](CCCCNC(=O)COCCOCCNC(=O)COCCOCCNC(=O)CC[C@H](NC(=O)CCCCCCCCCCCCCCCCC(=O)O)C(=O)O)C(N)=O)CCOCC2)NC1=O [compound 25, FITCPEG4CO-r-Pen(3)-N-T-7MeW-K(Ac)-Pen(3)-AEF-2Nal-THP-E-N-3Pya-Sar-K(PEG2PEG2gEC18OH)-CONH2] ({FITC-PEG4}-[dR][Pen]NT[Trp(7-Me)]K(Ac)[Pen][AEF][2Nal][Thp]EN[3Pal][Sar]K([AEEA-AEEA-γGlu-C18 diacid])-NH2; disulfide 2-7)	0.5 to 5 nM

From patent US20260250320A1, “LIPIDATED PEPTIDE INHIBITORS OF INTERLEUKIN-23 RECEPTOR” (Janssen Pharmaceutica NV, priority 2023, published 2026)
